Assay results published in PubChem BioAssay (NCI).
Where “and” joins values, the source holds several entries; their conditions need not be identical. Equal entries are not always repeated.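 Briefly, cells in 96-well plates were exposed to five compound concentrations for 48 h, and endpoints were estimated by linear interpolation. Abbreviation: GI50, concentration required for 50% inhibition of growth. TGI: total growth inhibition.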

Legend:
Test in all cases: NCI tumour cell line growth inhibition, 48 h
786-0 renal = system: 786-0 renal
OVCAR-4 ovarian = system: OVCAR-4 ovarian
SF-539 CNS = system: SF-539 CNS
BT-549 breast = system: BT-549 breast
NCI-H23 lung = system: NCI-H23 lung
RXF 393 renal = system: RXF 393 renal
SNB-75 CNS = system: SNB-75 CNS
MALME-3M melanoma = system: MALME-3M melanoma
DU-145 prostate = system: DU-145 prostate
LOX IMVI melanoma = system: LOX IMVI melanoma

Compound CN(C)C[C@H]1CCn2c(c(C3=C(c4cn(C)c5ccccc45)C(=O)NC3=O)c3ccccc32)C1 has a GI50 (786-0 renal) of 4.78 µM, a TGI (786-0 renal) of 9.29 µM and a GI50 (OVCAR-4 ovarian) of 3.97 µM. It also gave a TGI (OVCAR-4 ovarian) of 12.5 µM, a GI50 (SF-539 CNS) of 4010 nM and a TGI (SF-539 CNS) of 7.73 µM. It also gave a GI50 (BT-549 breast) of 4.83 µM, a TGI (BT-549 breast) of 9.53 µM and a GI50 (NCI-H23 lung) of 6.58 µM. The TGI (NCI-H23 lung) was 15 µM, the GI50 (RXF 393 renal) was 3670 nM and the TGI (RXF 393 renal) was 7.18 µM. For the same compound, the GI50 (SNB-75 CNS) was 562 nM, the TGI (SNB-75 CNS) was 5.16 µM and the GI50 (MALME-3M melanoma) was 4.24 µM. For the same compound, the TGI (MALME-3M melanoma) was 8.56 µM, the GI50 (DU-145 prostate) was 5.46 µM and the TGI (DU-145 prostate) was 10.8 µM. The GI50 (LOX IMVI melanoma) was 4.58 µM and the TGI (LOX IMVI melanoma) was 8.56 µM.
In the case of CN(C)c1ccc(C(=N)c2ccc(N(C)C)cc2)cc1, the GI50 (786-0 renal) is reported as 6.12 µM and 8.26 µM, the TGI (786-0 renal) is reported as 24.4 µM and 32 µM and the GI50 (OVCAR-4 ovarian) is reported as 5.86 µM and 3.71 µM. The TGI (OVCAR-4 ovarian) was greater than 100 µM, the GI50 (SF-539 CNS) was 2880 nM and 3500 nM and the TGI (SF-539 CNS) was 11.5 µM and 25.7 µM. The GI50 (BT-549 breast) was 3.77 µM and 5.1 µM, the TGI (BT-549 breast) was 28.9 µM and 29.2 µM and the GI50 (NCI-H23 lung) was 4.47 µM and 2.16 µM. The TGI (NCI-H23 lung) was 34.6 µM and 6.59 µM, the GI50 (RXF 393 renal) was 2930 nM and 2860 nM and the TGI (RXF 393 renal) was 12.2 µM and 19.3 µM. For the same compound, the GI50 (SNB-75 CNS) was 1650 nM and 1630 nM, the TGI (SNB-75 CNS) was 11.4 µM and 7.35 µM and the GI50 (MALME-3M melanoma) was 3.04 µM and 9.7 µM. For the same compound, the TGI (MALME-3M melanoma) was 28.8 µM and 62.2 µM, the GI50 (DU-145 prostate) was 4.14 µM and 5.93 µM and the TGI (DU-145 prostate) was greater than 100 µM. The GI50 (LOX IMVI melanoma) was 5.37 µM and 4.92 µM and the TGI (LOX IMVI melanoma) was 33 µM and 30.2 µM.
For CC(CN1CC(=O)NC(=O)C1)N1CC(=O)NC(=O)C1 (centres undefined), the TGI (786-0 renal) was greater than 750 µM, the TGI (OVCAR-4 ovarian) was greater than 750 µM and the TGI (SF-539 CNS) was greater than 750 µM. For the same compound, the TGI (BT-549 breast) was greater than 750 µM, the TGI (NCI-H23 lung) was greater than 750 µM and the TGI (RXF 393 renal) was greater than 750 µM. It also gave a TGI (SNB-75 CNS) greater than 715 µM, a TGI (MALME-3M melanoma) of 355 µM and a TGI (DU-145 prostate) greater than 750 µM. The TGI (LOX IMVI melanoma) was greater than 750 µM.
CN(C)C(=S)/N=c1\ssc(=S)n1Cc1cccs1 showed a TGI (786-0 renal) of 52.5 µM, a TGI (OVCAR-4 ovarian) greater than 91.7 µM and a TGI (SF-539 CNS) of 15.1 µM. For the same compound, the TGI (BT-549 breast) was greater than 100 µM, the TGI (NCI-H23 lung) was greater than 100 µM and the TGI (RXF 393 renal) was 23.9 µM. It also gave a TGI (SNB-75 CNS) of 15.2 µM, a TGI (MALME-3M melanoma) of 74.7 µM and a TGI (DU-145 prostate) greater than 100 µM. It also gave a TGI (LOX IMVI melanoma) greater than 100 µM.
CCOc1cc(C(=O)O)c2c(ccc3ccc(OC)c(OC)c32)c1OC showed a TGI (786-0 renal) greater than 100 µM, a TGI (OVCAR-4 ovarian) greater than 100 µM and a TGI (BT-549 breast) greater than 100 µM. For the same compound, the TGI (NCI-H23 lung) was greater than 100 µM, the TGI (RXF 393 renal) was greater than 100 µM and the TGI (SNB-75 CNS) was greater than 100 µM. It also gave a TGI (MALME-3M melanoma) greater than 100 µM, a TGI (DU-145 prostate) greater than 100 µM and a TGI (LOX IMVI melanoma) greater than 100 µM.
O=C1NCN(c2ccccc2)C12CCN(CCCC(c1ccc(F)cc1)c1ccc(F)cc1)CC2 was tested, and the GI50 (786-0 renal) was 1.67 µM, the TGI (786-0 renal) was 3.52 µM and the GI50 (OVCAR-4 ovarian) was 2.13 µM. It also gave a TGI (OVCAR-4 ovarian) of 9.98 µM, a GI50 (SF-539 CNS) of 1710 nM and a TGI (SF-539 CNS) of 3.13 µM. It also gave a GI50 (BT-549 breast) of 2.53 µM, a TGI (BT-549 breast) of 7.94 µM and a GI50 (NCI-H23 lung) of 3.31 µM. The TGI (NCI-H23 lung) was 15.2 µM, the GI50 (RXF 393 renal) was 1720 nM and the TGI (RXF 393 renal) was 4.37 µM. For the same compound, the GI50 (SNB-75 CNS) was 2070 nM, the TGI (SNB-75 CNS) was 14.2 µM and the GI50 (MALME-3M melanoma) was 1.66 µM. For the same compound, the TGI (MALME-3M melanoma) was 3.46 µM, the GI50 (DU-145 prostate) was 3.25 µM and the TGI (DU-145 prostate) was 11.2 µM. For the same compound, the GI50 (LOX IMVI melanoma) was 1.8 µM and the TGI (LOX IMVI melanoma) was 3.32 µM.
In the case of c1cc(CN2CCCNCCNCCCNCC2)ccc1CN1CCCNCCNCCCNCC1, the GI50 (786-0 renal) is reported as greater than 100 µM, the TGI (786-0 renal) is reported as greater than 100 µM and the GI50 (OVCAR-4 ovarian) is reported as greater than 100 µM. The TGI (OVCAR-4 ovarian) was greater than 100 µM, the GI50 (SF-539 CNS) was greater than 100000 nM and the TGI (SF-539 CNS) was greater than 100 µM. It also gave a GI50 (BT-549 breast) greater than 100 µM, a TGI (BT-549 breast) greater than 100 µM and a GI50 (NCI-H23 lung) greater than 100 µM. For the same compound, the TGI (NCI-H23 lung) was greater than 100 µM, the GI50 (RXF 393 renal) was greater than 100000 nM and the TGI (RXF 393 renal) was greater than 100 µM. For the same compound, the GI50 (SNB-75 CNS) was greater than 100000 nM, the TGI (SNB-75 CNS) was greater than 100 µM and the GI50 (MALME-3M melanoma) was greater than 100 µM. It also gave a TGI (MALME-3M melanoma) greater than 100 µM, a GI50 (DU-145 prostate) greater than 100 µM and a TGI (DU-145 prostate) greater than 100 µM. It also gave a GI50 (LOX IMVI melanoma) greater than 100 µM and a TGI (LOX IMVI melanoma) greater than 100 µM.
In the case of c1ccc2cc(Cn3cc[n+](Cc4ccc5ccccc5c4)c3)ccc2c1, the GI50 (786-0 renal) is reported as 4.4 µM, the TGI (786-0 renal) is reported as 19 µM and the GI50 (OVCAR-4 ovarian) is reported as 0.339 µM. It also gave a TGI (OVCAR-4 ovarian) of 2.97 µM, a GI50 (SF-539 CNS) of 1980 nM and a TGI (SF-539 CNS) of 9.27 µM. It also gave a GI50 (BT-549 breast) of 1.18 µM, a TGI (BT-549 breast) of 3.15 µM and a GI50 (NCI-H23 lung) of 0.901 µM. For the same compound, the TGI (NCI-H23 lung) was 10.1 µM, the GI50 (RXF 393 renal) was 1250 nM and the TGI (RXF 393 renal) was 4.72 µM. The GI50 (SNB-75 CNS) was 328 nM, the TGI (SNB-75 CNS) was 2.91 µM and the GI50 (MALME-3M melanoma) was 0.413 µM. For the same compound, the TGI (MALME-3M melanoma) was 2.49 µM, the GI50 (DU-145 prostate) was 2.83 µM and the TGI (DU-145 prostate) was 14.7 µM. For the same compound, the GI50 (LOX IMVI melanoma) was 1.1 µM and the TGI (LOX IMVI melanoma) was 2.39 µM.
